Source: patent US9290467B2, “Cyclic amides” (Hoffmann-La Roche Inc., priority 2012, dated 2016)
Like-named read-outs stand apart in the source and are kept apart here.

Assays:
[1] = from C=CCOc1ccc(C[C@H](NC(=O)c2ccccc2OCC=C)C(=O)NC2(C#N)CC2)cc1; rcm bond; 16-membered ring; Grubbs II (0.3 eq); DCM; 2.88 mM; 50.0 °C
Cathepsin L = Cathepsin L (Homo sapiens (Human), UniProt P07711); experiment: Cathepsin enzyme inhibition assay (fluorogenic peptide substrate Z-Val-Val-Arg-AMC); type: biochemical; settings: enzyme 1 nM, substrate 20 μM, pH 6.5
Chain of Cathepsin L (P07711 114-333): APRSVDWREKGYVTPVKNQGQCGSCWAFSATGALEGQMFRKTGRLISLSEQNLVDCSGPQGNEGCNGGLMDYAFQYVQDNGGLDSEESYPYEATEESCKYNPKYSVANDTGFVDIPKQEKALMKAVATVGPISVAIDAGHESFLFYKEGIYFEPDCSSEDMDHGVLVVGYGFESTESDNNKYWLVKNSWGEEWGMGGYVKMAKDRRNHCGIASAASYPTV
Procedure: Enzyme activity is measured by observing the increase in fluorescence intensity caused by cleavage of a peptide substrate containing a fluorophore whose emission is quenched in the intact peptide.
Assay buffer: 100 mM potassium phosphate pH 6.5, EDTA-Na 5 mM, Triton X-100 0.001%, DDT 5 mM.
Enzymes (all at 1 nM): human and mouse Cathepsin S, Cat K, Cat B, Cat L
Substrate (20 μM): Z-Val-Val-Arg-AMC, except for Cat K which uses Z-Leu-Arg-AMC (both from Bachem).
AMC=7-Amino-4-Methyl-Coumarin.
Excitation 360 nm, Emission 465 nm.
Enzyme is added to the substance dilutions in 96-well microtitre plates and the reaction is started with substrate. […] IC50 are calculated by standard methods. The results are expressed in μM in the following table.

[2] = rcm bond, 16-membered ring, DCM, 50.0 °C

| Structure (SMILES) | ring closure, yield after HPLC [1] | IC50 (Cathepsin L) | ring closure, isolated yield ([2]; Grubbs II) | ring closure, isolated yield ([2]; from C=CCOc1ccc(C[C@H](NC(=O)c2ccc(C)nc2SCC=C)C(=O)NC2(C#N)CC2)cc1Cl, Grubbs II (0.3 eq)/Ti(OiPr)4 (0.6 eq), 1.15 mM) |
| --- | --- | --- | --- | --- |
| N#CC1(NC(=O)[C@@H]2Cc3ccc(cc3)OC/C=C/COc3ccccc3C(=O)N2)CC1 [Example 1, (E)-(S)-5-Oxo-12,17-dioxa-4-aza-tricyclo[16.2.2.0*6,11*]docosa-1(21),6(11),7,9,14,18(22),19-heptaene-3-carboxylic acid (1-cyano-cyclopropyl)-amide] | 20% | 88.5 nM | – | – |
| COc1ccc2c(c1)CC/C=C/COc1ccc(cc1Cl)C[C@@H](C(=O)NC1(C#N)CC1)NC2=O [Example 18, (E)-(S)-19-Chloro-9-methoxy-5-oxo-17-oxa-4-aza-tricyclo[16.2.2.0*6,11*]docosa-1(21),6,8,10,14,18(22),19-heptaene-3-carboxylic acid (1-cyano-cyclopropyl)-amide] | – | 54.7 nM | 48% | – |
| Cc1ccc2c(n1)SC/C=C/COc1ccc(cc1Cl)C[C@@H](C(=O)NC1(C#N)CC1)NC2=O [Example 19, (E)-(S)-19-Chloro-9-methyl-5-oxo-17-oxa-12-thia-4,10-diaza-tricyclo[16.2.2.0*6,11*]docosa-1(21),6,8,10,14,18(22),19-heptaene-3-carboxylic acid (1-cyano-cyclopropyl)-amide] | – | 26 nM | – | 6% |
